The values below come from patent US9224959B2, “Method for producing a pi-electron conjugated compound” (Ricoh Company, Ltd., priority 2009, dated 2015).

The conditions of data set [1]: carboxylic acid as eliminated component; cited from earlier work.
Data set [2] can be described thus: Evaluation of solubility (saturated solution after reflux and cooling to room temperature). The data set is classed as physicochemical. The note with it: refluxed 10 min, cooled to room temperature, left 16 hours, 0.2 μm PTFE filtered. As to the method: The mixture was further stirred for 1 hour and left to stand for 16 hours, and the supernatant was filtered using a 0.2 μm-PTFE filter, to thereby obtain a saturated solution. The saturated solution was dried under reduced pressure, and the solubility of the precursor in each solvent was calculated.

As to `O=C(O)CC(F)(F)F` [3,3,3-trifluoropropionic acid], the Acidity in data set [1] is given as 3.0 pKa.
Regarding `CC(C)(C)C(=O)OC1CCC(OC(=O)C(C)(C)C)c2cc(-c3cc4sc(-c5ccc6c(c5)C(OC(=O)C(C)(C)C)CCC6OC(=O)C(C)(C)C)cc4s3)ccc21` (stereo not shown) [Compound 12], in data set [2], the “Solubility in THF” value is “A (the solubility is 0.5% by mass or more)”, the “Solubility in Anisole” value is listed as “A (the solubility is 0.5% by mass or more)”, the “Solubility in Chloroform” value is “A (the solubility is 0.5% by mass or more)” and the “Solubility in Toluene” value is “A (the solubility is 0.5% by mass or more)”.
`O=C(CC(F)(F)F)OC1CCC(OC(=O)CC(F)(F)F)c2cc(-c3cc4sc(-c5ccc6c(c5)C(OC(=O)CC(F)(F)F)CCC6OC(=O)CC(F)(F)F)cc4s3)ccc21` (stereo not shown) [Compound 13]: in data set [2], the “Solubility in THF” value is reported as “A (the solubility is 0.5% by mass or more)”, the “Solubility in Anisole” value is listed as “B (the solubility is 0.1% by mass or more to less than 0.5% by mass)”, the “Solubility in Chloroform” value was “A (the solubility is 0.5% by mass or more)” and the “Solubility in Toluene” value is “A (the solubility is 0.5% by mass or more)”.
Take `O=C(CC(F)(F)F)OC1CCC(OC(=O)CC(F)(F)F)c2cc(-c3cc4cc5sc(-c6ccc7c(c6)C(OC(=O)CC(F)(F)F)CCC7OC(=O)CC(F)(F)F)cc5cc4s3)ccc21` (stereo not shown) [Compound 14]: in data set [2], the “Solubility in THF” value is recorded as “A (the solubility is 0.5% by mass or more)”, the “Solubility in Anisole” value was “A (the solubility is 0.5% by mass or more)”, the “Solubility in Chloroform” value is reported as “A (the solubility is 0.5% by mass or more)” and the “Solubility in Toluene” value is listed as “B (the solubility is 0.1% by mass or more to less than 0.5% by mass)”.
For `O=C(CC(F)(F)F)OC1CCC(OC(=O)CC(F)(F)F)c2cc(-c3ccc4c(c3)sc3c5ccc(-c6ccc7c(c6)C(OC(=O)CC(F)(F)F)CCC7OC(=O)CC(F)(F)F)cc5sc43)ccc21` (stereo not shown) [Compound 16], in data set [2], the “Solubility in THF” value is “A (the solubility is 0.5% by mass or more)”, the “Solubility in Anisole” value is listed as “B (the solubility is 0.1% by mass or more to less than 0.5% by mass)”, the “Solubility in Chloroform” value is “A (the solubility is 0.5% by mass or more)” and the “Solubility in Toluene” value was “B (the solubility is 0.1% by mass or more to less than 0.5% by mass)”.
`c1ccc2cc(-c3cc4sc(-c5ccc6ccccc6c5)cc4s3)ccc2c1` [Compound 17]: in data set [2], the “Solubility in THF” value is “D (the solubility is less than 0.005% by mass)”, the “Solubility in Anisole” value is recorded as “D (the solubility is less than 0.005% by mass)”, the “Solubility in Chloroform” value is reported as “D (the solubility is less than 0.005% by mass)” and the “Solubility in Toluene” value is on record as “D (the solubility is less than 0.005% by mass)”.
`c1ccc2cc(-c3cc4cc5sc(-c6ccc7ccccc7c6)cc5cc4s3)ccc2c1` [Compound 18]: in data set [2], the “Solubility in THF” value is recorded as “D (the solubility is less than 0.005% by mass)”, the “Solubility in Anisole” value is recorded as “D (the solubility is less than 0.005% by mass)”, the “Solubility in Chloroform” value is recorded as “D (the solubility is less than 0.005% by mass)” and the “Solubility in Toluene” value is reported as “D (the solubility is less than 0.005% by mass)”.
For the compound `c1ccc2cc(-c3ccc4c(c3)sc3c5ccc(-c6ccc7ccccc7c6)cc5sc43)ccc2c1` [Compound 19], in data set [2], the “Solubility in THF” value is listed as “D (the solubility is less than 0.005% by mass)”, the “Solubility in Anisole” value is on record as “D (the solubility is less than 0.005% by mass)”, the “Solubility in Chloroform” value is on record as “D (the solubility is less than 0.005% by mass)” and the “Solubility in Toluene” value is recorded as “D (the solubility is less than 0.005% by mass)”.
As to `CCCCCC(=O)O` [caproic acid], the Acidity in data set [1] is 4.6 pKa.
Turning to `CC(C)(C)C(=O)O` [pivalic acid], in data set [1], the Acidity is listed as 5.0 pKa.
